In publication PMC10565663, “^177Lu-labeled PSMA targeting therapeutic with optimized linker for treatment of disseminated prostate cancer; evaluation of biodistribution and dosimetry” (Frontiers in Oncology, 2023):
“And” between values parts separate entries of the source, which are not always exact repeats. Equal values may be shown once.

Key:
[1] = molecular target: T1, PSMA-expressing PC-3pip prostate cancer cells (Homo sapiens, UniProt Q04609); experiment: Half-maximal inhibitory concentration: inhibition of [^111In]In-PSMA-617 binding; conditions: vs [^111In]In-PSMA-617 (1 nM); PC3-pip cells; 4°C, 4 hours
T1 construct: expressed in transfected cells; host or cells: PC3-pip (PSMA-transfected PC-3 human prostate cancer cells), provided by Prof; M. Pomper, Johns Hopkins University
T1 sequence (Q04609 whole entry): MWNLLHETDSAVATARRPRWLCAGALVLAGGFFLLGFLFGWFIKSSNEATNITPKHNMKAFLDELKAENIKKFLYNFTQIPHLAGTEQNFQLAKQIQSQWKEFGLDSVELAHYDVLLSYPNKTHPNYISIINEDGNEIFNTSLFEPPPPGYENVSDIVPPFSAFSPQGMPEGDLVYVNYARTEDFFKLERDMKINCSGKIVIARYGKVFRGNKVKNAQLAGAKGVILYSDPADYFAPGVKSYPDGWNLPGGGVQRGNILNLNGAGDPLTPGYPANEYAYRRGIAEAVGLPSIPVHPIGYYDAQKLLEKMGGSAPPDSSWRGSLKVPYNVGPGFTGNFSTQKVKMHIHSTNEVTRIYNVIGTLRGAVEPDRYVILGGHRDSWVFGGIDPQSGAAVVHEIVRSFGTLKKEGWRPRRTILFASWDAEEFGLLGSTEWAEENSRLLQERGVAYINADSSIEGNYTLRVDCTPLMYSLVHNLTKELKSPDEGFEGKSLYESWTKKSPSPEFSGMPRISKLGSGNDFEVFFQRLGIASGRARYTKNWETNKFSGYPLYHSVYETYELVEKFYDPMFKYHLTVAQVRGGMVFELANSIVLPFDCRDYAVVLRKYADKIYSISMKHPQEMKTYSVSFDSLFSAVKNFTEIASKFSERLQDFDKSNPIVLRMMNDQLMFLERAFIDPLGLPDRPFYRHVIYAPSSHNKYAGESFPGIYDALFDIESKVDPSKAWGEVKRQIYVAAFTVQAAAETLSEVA
Protocol: For the determination of a half-maximal inhibitory concentration (IC50), PSMA-617 was labeled with indium-111. For this purpose, 2 nmol PSMA-617 were dissolved in 40 µL 0.2 M ammonium acetate, pH 5.5, and 12 µL (10 MBq) of [^111In]InCl3 solution in 0.01 M HCl was added. The mixture was vortexed and incubated at 85 °C for 30 min. The yield was determined using iTLC eluted with 0.2 M citric acid, pH 2.0. Since the radiochemical yield was over 98%, [^111In]In-PSMA-617 was used in further experiments without purification.
For determination of IC50, BQ7876 and PSMA-617 were loaded with non-radioactive Lu of natural isotopic composition (^natLu) by incubation with a three-fold molar excess of ^natLuCl3 at 85 °C for 30 min in 0.2 M ammonium acetate, pH 5.5. Cells were washed with a PBS solution and incubated at 4°C for 4 hours with [^111In]In-PSMA-617 (1 nM) in the presence of increasing concentrations (range 0 to 2 μM) of competitors, ^natLu-BQ7876 or ^natLu-PSMA-617. Thereafter, cells were detached, collected, and cell-associated activity was measured using gamma-counter. The half-maximal inhibitory concentration was calculated using GraphPad software (version 9.3.1 for Windows, GraphPad Software, LLC. CA, USA).

[2] = design: method as in Kuo et al. 2018; conditions: humans; extrapolated from mouse biodistribution; ref Kuo et al. 2018; cited from earlier work
[3] = molecular target: T2, PSMA-expressing PC3-pip cells (Homo sapiens, UniProt Q04609); experiment: In vitro binding specificity test (PSMA saturation with unlabeled compound); conditions: 1 nM radiolabeled compound, 100-fold molar excess unlabeled, 1 h 37°C
T2 construct: expressed in transfected cells; host or cells: PC3-pip (PSMA-transfected PC-3 human prostate cancer cells), provided by Prof; M. Pomper, Johns Hopkins University
T2 sequence (Q04609 whole entry): as above
Protocol: The human prostate cancer cell line PC-3 was purchased from the American Type Culture Collection (ATCC; LGC Promochem, Borås, Sweden). The cells were cultured in Roswell Park Memorial Institute (RPMI) 1640 medium supplemented with 10% fetal bovine serum (FBS), 2 mM L-glutamine, penicillin 100 IU/mL and 100 µg/mL streptomycin at 37°C and 5% CO2 atmosphere. The PSMA-transfected and overexpressing variant of PC3 cell line, PC3-pip, was provided by Prof. M. Pomper, Department of Radiology, the Johns Hopkins University, Baltimore, MD, US. PC3-pip cells were cultured in two types of RPMI media. The first one contained 20% fetal bovine serum, 1% of L-glutamine (5 mL) and 1% of PEST (penicillin and streptomycin 5 mL). The second one contained 20% fetal bovine serum, 1% of L-glutamine (5 mL) and 1% of PEST (penicillin and streptomycin 5 mL) and 10 μg/mL of pyramycin. The second media is used every second passage to maintain clone selection. All in vitro experiments were performed in triplicates. For a typical experiment, cells were seeded one day before the experiment in Petri dishes (35 mm) in the amount of 1×10^6 cell/dish.
[…] specificity was tested using a saturation method. Before the experiment, cells were washed with PBS solution. […] Cell-associated activity was measured using gamma-counter and presented as the percentage of added activity.

PC3-pip xenografts [4] = experiment: Biodistribution in mice bearing PSMA-positive PC3-pip xenografts; type: in vivo, Balb/c nu/nu mice; conditions: 3 h p.i.; PC3-pip xenograft mice; n=4
Protocol: To prepare xenografts, PC3-pip and PC3 (PSMA-negative control) cells (10^7 cells in 100 μL of media) were subcutaneously injected in the hind legs of female Balb/c nu/nu mice. At the time of the experiment, the average mouse weight was 18 ± 2 g. The average tumor weight was 0.2 ± 0.1 g.
Biodistribution of [^177Lu]Lu-BQ7876 was determined at 1, 3, 24, 48 and 130 hours p.i. Mice were injected with [^177Lu]Lu-BQ7876 (280 kBq/mouse). The amount of substance was adjusted to 80 pmol/mouse using unlabeled substance. A group of four animals per data point was used. The labeled peptide was injected into the tail vein. Mice were anaesthetized by a lethal intraperitoneal injection of ketamine and xylazine mixture solution (the dose of ketamine was 250 mg/kg and the dose of xylazine was 25 mg/kg) and sacrificed. Mice were exsanguinated by heart puncture using a heparinized syringe under anaesthesia. Organs and tissues were excised and weighed, and the activity of each organ was measured. The percentage of injected dose per gram of sample (%ID/g) was calculated. Activity in the rest of the gastrointestinal tract was measured to estimate hepatobiliary excretion. The rest of the body was also collected and its activity was measured. […]

PC3-pip xenografts [5] = experiment: microSPECT/CT imaging of mice bearing PC3-pip xenografts; type: in vivo, Balb/c nu/nu mice; conditions: 3 h pi, 80 pmol/mouse
Protocol: To confirm the biodistribution data, imaging of mice bearing PC3-pip xenografts was performed. The mice were injected with [^177Lu]Lu-BQ7876 (900 kBq/mouse, 80 pmol/mouse) or [^177Lu]Lu-PSMA-617 (1200 kBq/mouse, 80 pmol/mouse). Imaging was performed at 3 h pi using nanoScan SPECT/CT (Mediso Medical Imaging Systems, Hungary) according to the protocol describe earlier ([25]).

PC3-pip cells = experiment: Cellular processing and internalization (acid wash method); type: cell-based, human; conditions: 2 nM, after 24 h of continuous incubation at 37°C
Protocol: Internalization of radiolabeled PSMA binders was evaluated using an acid wash method ([21]). PC3-pip cells were incubated with 2 nM of [^177Lu]Lu-BQ7876 or [^177Lu]Lu-PSMA-617 in RPMI medium at 37°C (5% of CO2). At predetermined time points (1, 2, 6 and 24 h), cells were treated with 0.5 mL of 4 M urea solution in a 0.2 M glycine buffer, pH 2.5, for 5 minutes on ice. After that, the acidic supernatant was collected and this fraction was considered to be a membrane-bound activity. To lyse the cells, 0.5 mL of 1 M sodium hydroxide solution was added and incubated at 37°C for at least 20 min. Alkaline-containing solution was collected, and the basic fraction was considered to be an internalized activity. Samples were measured using gamma-counter.

## O=C([O-])CN1CCN(CC(=O)[O-])CCN(CC(=O)NC[C@H]2CC[C@H](C(=O)N[C@@H](Cc3ccc4ccccc4c3)C(=O)NCCCC[C@H](NC(=O)N[C@@H](CCC(=O)O)C(=O)O)C(=O)O)CC2)CCN(CC(=O)[O-])CC1.[Lu+3] [^natLu-PSMA-617]
[1]
  IC50: 61 nM and 60 nM

## O=C([O-])CN1CCN(CC(=O)[O-])CCN(CC(=O)NC[C@H]2CC[C@H](C(=O)N[C@@H](Cc3ccc4ccccc4c3)C(=O)NCCCC[C@H](NC(=O)N[C@@H](CCC(=O)O)C(=O)O)C(=O)O)CC2)CCN(CC(=O)[O-])CC1.[177Lu+3] [[^177Lu]Lu-PSMA-617]
[2]
  Absorbed dose, adrenals: 7.64E-03 mGy/MBq
  Absorbed dose, brain: 4.32E-04 mGy/MBq
  Absorbed dose, gallbladder wall: 8.76E-04 mGy/MBq
  Absorbed dose, heart wall: 1.00E-03 mGy/MBq
  Absorbed dose, kidneys: 1.11E-01 mGy/MBq
  Absorbed dose, liver: 1.37E-03 mGy/MBq
  Absorbed dose, lungs: 1.81E-03 mGy/MBq
  Absorbed dose, osteogenic cells: 8.30E-04 mGy/MBq
  Absorbed dose, pancreas: 7.60E-04 mGy/MBq
  Absorbed dose, prostate: 1.17E-03 mGy/MBq
  Absorbed dose, red marrow: 7.59E-04 mGy/MBq
  Absorbed dose, small intestine: 1.72E-03 mGy/MBq
  Absorbed dose, spleen: 4.42E-03 mGy/MBq
  Absorbed dose, stomach wall: 1.69E-03 mGy/MBq
  Absorbed dose, testes: 1.05E-03 mGy/MBq
  Absorbed dose, thymus: 7.19E-04 mGy/MBq
  Absorbed dose, thyroid: 7.11E-04 mGy/MBq
  Absorbed dose, total body: 1.70E-03 mGy/MBq
[3]
  Binding of labeled compound to cells after saturation of PSMA with large excess of unlabeled compound: highly significant (p< 5 x 10^-6) reduction of binding
PC3-pip xenografts [4]
  Uptake in blood: 0.06±0.02 %IA/g
  Uptake in bone: 0.11±0.02 %IA/g
  Uptake in heart: 0.08±0.07 %IA/g
  Uptake in kidney: 9±3 %IA/g
  Uptake in liver: 0.24±0.02 %IA/g
  Uptake in lung: 0.21±0.07 %IA/g
  Uptake in muscle: 0.07±0.02 %IA/g
  Uptake in pancreas: 0.09±0.04 %IA/g
  Uptake in salivary gland: 0.12±0.04 %IA/g
  Uptake in spleen: 0.5±0.3 %IA/g
  Uptake in tumor: 12±3 %IA/g
PC3-pip xenografts [5]
  Activity accumulation in microSPECT/CT imaging: accumulated avidly in tumors

## O=C([O-])CN1CCN(CC(=O)[O-])CCN(CC(=O)NC[C@H]2CC[C@H](C(=O)N[C@@H](Cc3ccc4ccccc4c3)C(=O)NCCCC[C@H](NC(=O)N[C@@H](CCC(=O)O)C(=O)O)C(=O)O)CC2)CCN(CC(=O)[O-])CC1.[111In+3] [[^111In]In-PSMA-617]
[3]
  Binding of labeled compound to cells after saturation of PSMA with large excess of unlabeled compound: highly significant (p< 5 x 10^-6) reduction of binding

## O=C(O)CC[C@H](NC(=O)N[C@@H](CCCCNC(=O)[C@H](Cc1ccc2ccccc2c1)NC(=O)[C@H]1CC[C@H](CNC(=O)CN2CCN(CC(=O)O)CCN(CC(=O)O)CCN(CC(=O)O)CC2)CC1)C(=O)O)C(=O)O [PSMA-617]
PC3-pip cells
  internalized fraction of the total cell-associated activity: 10.0 ± 2.9%
